{
  "source": "patent US4758555A",
  "about": "“Method for treating convulsions and epilepsy with organic copper compounds” (priority 1986, dated 1988)",
  "key": {"[1]": {"experiment": "Subcutaneous Pentylenetetrazol (Metrazol) Seizure Threshold Test", "assay_type": "in vivo, male Carworth Farms #1 mice or Sprague-Dawley rats", "details": "for Protection against Metrazol-induced seizures (in words): running text; for Lowest effective dose, Metrazol (Phase I): Table X"}, "[2]": {"experiment": "Maximal Electroshock Seizure Test", "assay_type": "in vivo, male Carworth Farms #1 mice or Sprague-Dawley rats"}},
  "data": [
    {"molecule": "C[C@@H](O)[C@H](N)C(=O)[O-].N[C@@H](CO)C(=O)[O-].[Cu+2]", "note": "[Cu(II)(L-threoninate)(L-serinate)]", "values": [
      {"measurement": "Protection against Metrazol-induced seizures (in words)", "setting": "[1]", "value": "effective against the Metrazol-induced seizure at all doses studied and at both time intervals, 30 minutes and 4 hours"}
    ]},
    {"molecule": "Cu(II)(L-cystinate)2 H2 O", "values": [
      {"measurement": "Protection against Metrazol-induced seizures (in words)", "setting": "[1]", "value": "effective against the Metrazol-inducedseizure at all three doses studied but only at the shorter time period"}
    ]},
    {"molecule": "CC(C)[C@H](N)C(=O)[O-].CC(C)[C@H](N)C(=O)[O-].O.[Cu+2]", "note": "[Cu(II)(L-valinate)2 H2 O]", "values": [
      {"measurement": "Protection against Metrazol-induced seizures (in words)", "setting": "[1]", "value": "effective against the Metrazol-induced seizure at all doses studied and at both time intervals, 30 minutes and 4 hours"}
    ]},
    {"molecule": "CCC1(c2ccccc2)C(=O)[N-]C(=O)NC1=O.CCC1(c2ccccc2)C(=O)[N-]C(=O)NC1=O.CCC1(c2ccccc2)C(=O)[N-]C(=O)NC1=O.CCC1(c2ccccc2)C(=O)[N-]C(=O)NC1=O.O.O.O.O.O.O.O.O.O.O.O.[Cu+2].[Cu+2]", "note": "[Cu(II)(Phenobarbital)2 (H2 O)5.5]", "values": [
      {"measurement": "Lowest effective dose, MES (Phase I)", "setting": "[2]; Table X, IP, challenge time 30 min", "value": "30 milligrams per kilogram of bod"},
      {"measurement": "Lowest effective dose, MES (Phase I)", "setting": "[2]; Table X, IP, challenge time 4 hrs", "value": "30 milligrams per kilogram of bod"},
      {"measurement": "Lowest effective dose, MES (Phase I)", "setting": "[2]; Table X, SC, challenge time 30 min", "value": "30 milligrams per kilogram of bod"},
      {"measurement": "Lowest effective dose, MES (Phase I)", "setting": "[2]; Table X, SC, challenge time 4 hrs", "value": "30 milligrams per kilogram of bod"},
      {"measurement": "Lowest effective dose, Metrazol (Phase I)", "setting": "[1]; IP, challenge time 30 min", "value": "5 milligrams per kilogram of bod"},
      {"measurement": "Lowest effective dose, Metrazol (Phase I)", "setting": "[1]; IP, challenge time 4 hrs", "value": "5 milligrams per kilogram of bod"},
      {"measurement": "Lowest effective dose, Metrazol (Phase I)", "setting": "[1]; SC, challenge time 30 min", "value": "30 milligrams per kilogram of bod"},
      {"measurement": "Lowest effective dose, Metrazol (Phase I)", "setting": "[1]; SC, challenge time 4 hrs", "value": "30 milligrams per kilogram of bod"}
    ]},
    {"molecule": "Cu(II)n (Phenobarbital)n (pyridine)2n (H2 O)3n", "values": [
      {"measurement": "Lowest effective dose, Metrazol (Phase I)", "setting": "[1]; SC, challenge time 30 min", "value": "30 milligrams per kilogram of bod"},
      {"measurement": "Lowest effective dose, Metrazol (Phase I)", "setting": "[1]; SC, challenge time 4 hrs", "value": "30 milligrams per kilogram of bod"}
    ]},
    {"molecule": "N[C@@H](Cc1ccccc1)C(=O)[O-].N[C@@H](Cc1ccccc1)C(=O)[O-].[Cu+2]", "note": "[Cu(II)(L-phenylalaninate)2]", "values": [
      {"measurement": "Protection against Metrazol-induced seizures (in words)", "setting": "[1]", "value": "effective against the Metrazol-inducedseizure at all three doses studied but only at the shorter time period"}
    ]},
    {"molecule": "NC(=O)N1c2ccccc2C=Cc2ccccc21", "note": "[Carbamazepine, reference compound]", "values": [
      {"measurement": "ED50", "setting": "[2]; Mus musculus, Table X, IP, at time of peak activity, read-out: ED50 for inhibition of seizures, MES (Phase II)", "value": 9, "unit": "mg/kg"}
    ]},
    {"molecule": "O=C([O-])c1cc(Cl)ccc1O.O=C([O-])c1cc(Cl)ccc1O.[Cu+2]", "note": "[Cu(II)(5-chlorosalicylate)2]", "values": [
      {"measurement": "Anticonvulsant activity, Maximal Electroshock (Phase I)", "setting": "[2]; Table II, IP", "value": "I"}
    ]},
    {"molecule": "CC(=O)Oc1ccccc1C(=O)[O-].CC(=O)Oc1ccccc1C(=O)[O-].CS(C)=O.CS(C)=O.[Cu+2]", "note": "[Cu(II)(acetylsalicylate)2 (dimethylsulfoxide)2]", "values": [
      {"measurement": "Anticonvulsant activity, Maximal Electroshock (Phase I)", "setting": "[2]; Table I, SC", "value": "I"}
    ]},
    {"molecule": "C[C@@H](O)[C@H](N)C(=O)[O-].C[C@H](N)C(=O)[O-].[Cu+2]", "note": "[Cu(II)(L-threoninate)(L-alaninate)]", "values": [
      {"measurement": "Protection against Metrazol-induced seizures (in words)", "setting": "[1]", "value": "effective against the Metrazol-induced seizure at all doses studied and at both time intervals, 30 minutes and 4 hours"}
    ]},
    {"molecule": "C[C@@H](O)[C@H](N)C(=O)[O-].C[C@@H](O)[C@H](N)C(=O)[O-].O.[Cu+2]", "note": "[Cu(II)(L-threoninate)2 H2 O]", "values": [
      {"measurement": "Protection against Metrazol-induced seizures (in words)", "setting": "[1]", "value": "effective against the Metrazol-induced seizure at all doses studied and at both time intervals, 30 minutes and 4 hours"}
    ]},
    {"molecule": "C[C@H](N)C(=O)[O-].C[C@H](N)C(=O)[O-].[Cu+2]", "note": "[Cu(II)(L-alaninate)2]", "values": [
      {"measurement": "Protection against Metrazol-induced seizures (in words)", "setting": "[1]", "value": "effective against the Metrazol-induced seizure at all doses studied and at both time intervals, 30 minutes and 4 hours"}
    ]},
    {"molecule": "CC(=O)Oc1ccccc1C(=O)[O-].CC(=O)Oc1ccccc1C(=O)[O-].[Cu+2].c1ccncc1.c1ccncc1", "note": "[Cu(II)(acetylsalicylate)2 (pyridine)2]", "values": [
      {"measurement": "Anticonvulsant activity, Maximal Electroshock (Phase I)", "setting": "[2]; Table I, SC", "value": "I"}
    ]}
  ]
}
